From PubChem BioAssay AID330 (DTP/NCI, 2004)
Several values for one entry are separate records, joined by “and”; a condition that tells them apart may be missing. Identical values can stand only once. Inconclusive results and toxic doses are left out. How the source made its calls: active means survival T/C of 150% or more; inactive means T/C below 125% in these data.

System: P388 leukemia ip, CD2F1 mice, survival T/C
Assay: NCI In Vivo Anticancer Drug Screen. Data for tumor model P388 Leukemia (intraperitoneal) in CD2F1 (CDF1) mice
Conditions: endpoint: median survival time, higher = longer survival
How it was run: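 Mice carrying the transplanted tumor received test compound or vehicle. Survival was recorded in each group, and the value is the treated-group measurement divided by that of the vehicle-treated control group.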

[1] = dose: 50.0 mg/kg/injection, schedule: Q01DX001 (ip), vehicle: Klucel (hydroxypropylcellulose) (HPC)
[2] = dose: 100.0 mg/kg/injection, schedule: Q01DX001 (ip), vehicle: Klucel (hydroxypropylcellulose) (HPC)
[3] = dose: 200.0 mg/kg/injection, schedule: Q01DX001 (ip), vehicle: Klucel (hydroxypropylcellulose) (HPC)
[4] = dose: 6.25 mg/kg/injection, schedule: Q01DX009 (ip), vehicle: saline with Tween-80
[5] = dose: 12.5 mg/kg/injection, schedule: Q01DX009 (ip), vehicle: saline with Tween-80
[6] = dose: 50.0 mg/kg/injection, schedule: Q01DX009 (ip), vehicle: saline with Tween-80
[7] = dose: 50.0 mg/kg/injection, schedule: Q01DX005 (ip), vehicle: Klucel (hydroxypropylcellulose) (HPC)
[8] = dose: 100.0 mg/kg/injection, schedule: Q01DX005 (ip), vehicle: Klucel (hydroxypropylcellulose) (HPC)
[9] = dose: 100.0 mg/kg/injection, schedule: Q01DX009 (ip), vehicle: saline with Tween-80
[10] = dose: 50.0 mg/kg/injection, schedule: Q01DX005 (ip), vehicle: saline with Tween-80
[11] = dose: 100.0 mg/kg/injection, schedule: Q01DX005 (ip), vehicle: saline with Tween-80
[12] = dose: 200.0 mg/kg/injection, schedule: Q01DX005 (ip), vehicle: saline with Tween-80
[13] = dose: 60.0 mg/kg/injection, schedule: Q01DX005 (ip), vehicle: saline with Tween-80
[14] = dose: 120.0 mg/kg/injection, schedule: Q01DX005 (ip), vehicle: saline with Tween-80
[15] = dose: 240.0 mg/kg/injection, schedule: Q01DX005 (ip), vehicle: saline with Tween-80
[16] = dose: 50.0 mg/kg/injection, schedule: Q01DX009 (ip), vehicle: Klucel (hydroxypropylcellulose) (HPC)
[17] = dose: 100.0 mg/kg/injection, schedule: Q01DX009 (ip), vehicle: Klucel (hydroxypropylcellulose) (HPC)
[18] = dose: 200.0 mg/kg/injection, schedule: Q01DX009 (ip), vehicle: Klucel (hydroxypropylcellulose) (HPC)

Measured: T/C

CCOC(=O)C12C(C(=O)OC)=CC(=O)NC1(OCC)OC(C)C2C (stereo not drawn)
inactive: [1] 94 % of control | [2] 89 % of control | [3] 89 % of control

NC1=NC(c2c3ccccc3cc3ccccc23)N=C(Nc2cccc(Cl)c2)N1 (stereo not drawn)
inactive: [4] 107 % of control | [5] 114 % of control | [6] 95 % of control

Clc1ccc2c(NCC3CCCN4CCCCC34)ccnc2c1 (stereo not drawn)
inactive: [7] 104 % of control | [8] 101 % of control

CCOC(=O)C(=O)N1c2c(nc(N)[nH]c2=O)NCC1CNc1ccc(C(=O)NC(CCC(=O)O)C(=O)O)cc1 (stereo not drawn) (tested in a mixture with another compound)
inactive: dose: 50.0 mg/kg/injection, schedule: Q01DX001 (ip), vehicle: saline 111 % of control | dose: 100.0 mg/kg/injection, schedule: Q01DX001 (ip), vehicle: saline 101 % of control | dose: 200.0 mg/kg/injection, schedule: Q01DX001 (ip), vehicle: saline 101 % of control

COC1/C=C\OC2(C)Oc3c(C)c(O)c4c(O)c(c(/C=N/N(Cc5ccccc5)C56CC7CC(CC(C7)C5)C6)c(O)c4c3C2=O)NC(=O)/C(C)=C\C=C\C(C)C(O)C(C)C(O)C(C)C(OC(C)=O)C1C (stereo not drawn)
inactive: [6] 102 % of control | [9] 100 % of control

CCOC(=O)CCCCCCCNC(=O)N1c2c(nc(N)[nH]c2=O)NCC1CNc1ccc(C(=O)NC(CCC(=O)O)C(=O)O)cc1 (stereo not drawn)
inactive: dose: 50.0 mg/kg/injection, schedule: Q01DX001 (ip), vehicle: sodium bicarbonate 100 % of control | dose: 100.0 mg/kg/injection, schedule: Q01DX001 (ip), vehicle: sodium bicarbonate 101 % of control | dose: 200.0 mg/kg/injection, schedule: Q01DX001 (ip), vehicle: sodium bicarbonate 100 % of control

CC(C1SC(=S)NC1=O)C1SC(=S)NC1=O (stereo not drawn)
inactive: [10] 86 % of control | [11] 87 % of control | [12] 87 % of control

CNc1nc(N)nc(N)c1N1CCN(c2ccc(C(=O)NC(CCCC(=O)O)C(=O)O)cc2)CC1 (stereo not drawn)
inactive: [13] 99 % of control | [14] 100 % of control | [15] 95 % of control

COc1cccc2c1C(=O)c1c(O)c3c(c(O)c1C2=O)C[C@@](O)(CO)C[C@@H]3OC1CC(N)C(O)C(C)O1 (stereo partly drawn)
inactive: dose: 0.56 mg/kg/injection, schedule: Q04DX003 (ip), vehicle: water 109 % of control | dose: 1.13 mg/kg/injection, schedule: Q04DX003 (ip), vehicle: water 104 % of control | dose: 2.25 mg/kg/injection, schedule: Q04DX003 (ip), vehicle: water 109 % of control and 118 % of control | dose: 4.5 mg/kg/injection, schedule: Q04DX003 (ip), vehicle: water 115 % of control and 123 % of control | dose: 6.25 mg/kg/injection, schedule: Q01DX009 (ip), vehicle: water 88 % of control | dose: 9.0 mg/kg/injection, schedule: Q04DX003 (ip), vehicle: water 121 % of control | dose: 18.0 mg/kg/injection, schedule: Q04DX003 (ip), vehicle: water 119 % of control and 123 % of control | dose: 36.0 mg/kg/injection, schedule: Q04DX003 (ip), vehicle: water 97 % of control
active: dose: 0.78 mg/kg/injection, schedule: Q01DX009 (ip), vehicle: water 167 % of control | dose: 1.56 mg/kg/injection, schedule: Q01DX009 (ip), vehicle: water 167 % of control and 183 % of control

CSc1ccc(NC(=O)n2nnc3ccccc32)cc1
inactive: dose: 6.25 mg/kg/injection, schedule: Q01DX009 (ip), vehicle: Klucel (hydroxypropylcellulose) (HPC) 103 % of control and 106 % of control | dose: 12.5 mg/kg/injection, schedule: Q01DX009 (ip), vehicle: Klucel (hydroxypropylcellulose) (HPC) 102 % of control and 110 % of control | dose: 25.0 mg/kg/injection, schedule: Q01DX009 (ip), vehicle: Klucel (hydroxypropylcellulose) (HPC) 100 % of control and 111 % of control | [16] 105 % of control and 109 % of control and 120 % of control | [17] 105 % of control and 117 % of control and 124 % of control | [18] 106 % of control and 97 % of control

NC(=S)N/N=C/c1c(O)c2cc(Cl)ccc2[nH]c1=O
inactive: [10] 106 % of control | [11] 112 % of control | [12] 112 % of control

C(=N[C@H]1CCCC[C@H]1N=Cc1ccc[nH]1)c1ccc[nH]1
inactive: dose: 6.25 mg/kg/injection, schedule: Q01DX005 (ip), vehicle: saline with Tween-80 99 % of control | dose: 12.5 mg/kg/injection, schedule: Q01DX005 (ip), vehicle: saline with Tween-80 101 % of control | dose: 25.0 mg/kg/injection, schedule: Q01DX005 (ip), vehicle: saline with Tween-80 100 % of control | [11] 86 % of control

O=c1c(Cc2ccc(Cl)cc2)coc2ccccc12
inactive: [13] 94 % of control | [14] 94 % of control | [15] 101 % of control

OC1(c2ccc(CCc3ccc(C4(O)C(c5ccccc5)=C(c5ccccc5)C(c5ccccc5)=C4c4ccccc4)cc3)cc2)C(c2ccccc2)=C(c2ccccc2)C(c2ccccc2)=C1c1ccccc1
inactive: [4] 100 % of control | [5] 97 % of control | dose: 25.0 mg/kg/injection, schedule: Q01DX009 (ip), vehicle: saline with Tween-80 93 % of control | [3] 89 % of control

O=C(Oc1ccccc1)N1CCCCC1
inactive: dose: 12.5 mg/kg/injection, schedule: Q01DX001 (ip), vehicle: saline with Tween-80 95 % of control | dose: 25.0 mg/kg/injection, schedule: Q01DX001 (ip), vehicle: saline with Tween-80 99 % of control | dose: 50.0 mg/kg/injection, schedule: Q01DX001 (ip), vehicle: saline with Tween-80 106 % of control | dose: 100.0 mg/kg/injection, schedule: Q01DX001 (ip), vehicle: saline with Tween-80 104 % of control

O=C1CC2CCCCC2CC1c1ccccc1 (stereo not drawn)
inactive: [16] 104 % of control | [17] 88 % of control | [18] 95 % of control

COc1ccc(/C=N/Nc2ccccc2)cc1
inactive: [6] 99 % of control | [9] 92 % of control | dose: 200.0 mg/kg/injection, schedule: Q01DX009 (ip), vehicle: saline with Tween-80 99 % of control | dose: 400.0 mg/kg/injection, schedule: Q01DX009 (ip), vehicle: saline with Tween-80 94 % of control

COc1ccc(OCCCBr)c(Br)c1
inactive: [7] 101 % of control | [8] 97 % of control | dose: 200.0 mg/kg/injection, schedule: Q01DX005 (ip), vehicle: Klucel (hydroxypropylcellulose) (HPC) 104 % of control

S=C(Nc1ccc(N=Nc2ccccc2)cc1)SCc1ccc(Cl)cc1
inactive: dose: 50.0 mg/kg/injection, schedule: Q01DX009 (ip), vehicle: saline 97 % of control | dose: 100.0 mg/kg/injection, schedule: Q01DX009 (ip), vehicle: saline 103 % of control | dose: 200.0 mg/kg/injection, schedule: Q01DX009 (ip), vehicle: saline 100 % of control | dose: 200.0 mg/kg/injection, schedule: Q01DX009 (ip), vehicle: suspension in saline 93 % of control

Clc1cccc2nnc(Br)n12
inactive: [1] 98 % of control | [2] 102 % of control | [3] 111 % of control

Nc1c2c(=O)[nH]c(=O)c2c(N)c2c(=O)c3ccccc3c(=O)c12
inactive: dose: 60.0 mg/kg/injection, schedule: Q01DX005 (ip), vehicle: saline 103 % of control | dose: 120.0 mg/kg/injection, schedule: Q01DX005 (ip), vehicle: saline 104 % of control | dose: 240.0 mg/kg/injection, schedule: Q01DX005 (ip), vehicle: saline 105 % of control

O=S(=O)(Nc1cccc(C(F)(F)F)c1)c1ccc(F)cc1
inactive: [13] 94 % of control | [14] 100 % of control | [15] 93 % of control

c1cc[c]([Ge]([c]2ccccc2)[c]2ccccc2)cc1
inactive: [13] 91 % of control | [14] 100 % of control | [15] 97 % of control

OCCCCCCCCCCCN1CCOCC1
inactive: [10] 106 % of control | [11] 98 % of control | [12] 101 % of control

NNC(=O)c1cccc2ccccc12
inactive: dose: 3.12 mg/kg/injection, schedule: Q01DX005 (ip), vehicle: saline 101 % of control | dose: 6.25 mg/kg/injection, schedule: Q01DX005 (ip), vehicle: saline 104 % of control | dose: 12.5 mg/kg/injection, schedule: Q01DX005 (ip), vehicle: saline 98 % of control
